Tested on: 926638-142-R-J1-PDC complex spheroid viability
Test: Anticancer human tumor 926638-142-R-J1-PDC patient-derived endometrial carcinoma cell line growth inhibition [POLQ]
Conditions: for IC50: curve of first compound; for viability, T/C: stronger effect = lower value; active means viability on the fitted dose curve at most 10% of control; inactive means the rest
Procedure, shortened: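 PDC + HUVEC + MSC complex spheroids; POLQ inhibitors ± partner drugs; top conc. at/near clinical Cmax, else 10 microM (SN-38 1 microM), half-log dilutions; 37 degrees C, 5% CO2.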
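Further: spheroids exposed to drugs for one week before readout.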
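Wherever viability, T/C is given: percent viability relative to DMSO vehicle control wells set as 100%.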

CC1COCCN1c1cc(C2(O)CC3CCC(C2)O3)c2cnn(-c3ccn[nH]3)c2n1 (configuration not stated) + Nc1ccc(C#CCN(C(=O)Cc2ncc(C(F)(F)F)cc2C(F)(F)F)c2ccc(F)cc2)nn1
191 nM: IC50 (second compound 0.316 µM)
186 nM: IC50 (second compound 10 µM)
inactive: viability, T/C (second compound 0.0316 µM, first compound 0.0316 µM) 96.6% | viability, T/C (second compound 0.0316 µM, first compound 0.1 µM) 66.5% | viability, T/C (second compound 0.0316 µM, first compound 0.316 µM) 40.1% | viability, T/C (second compound 0.0316 µM, first compound 1 µM) 14.8% | viability, T/C (second compound 0.1 µM, first compound 0.0316 µM) 105% | viability, T/C (second compound 0.1 µM, first compound 0.1 µM) 69.9% | viability, T/C (second compound 0.1 µM, first compound 0.316 µM) 36.8% | viability, T/C (second compound 0.1 µM, first compound 1 µM) 16.9% | viability, T/C (second compound 0.316 µM, first compound 0.0316 µM) 102% | viability, T/C (second compound 0.316 µM, first compound 0.1 µM) 68.9% | viability, T/C (second compound 0.316 µM, first compound 0.316 µM) 33.4% | viability, T/C (second compound 0.316 µM, first compound 1 µM) 19.8% | viability, T/C (second compound 1 µM, first compound 0.0316 µM) 88.3% | viability, T/C (second compound 1 µM, first compound 0.1 µM) 71% | viability, T/C (second compound 1 µM, first compound 0.316 µM) 35.8% | viability, T/C (second compound 1 µM, first compound 1 µM) 14% | viability, T/C (second compound 3.16 µM, first compound 0.0316 µM) 82.5% | viability, T/C (second compound 3.16 µM, first compound 0.1 µM) 69% | viability, T/C (second compound 3.16 µM, first compound 0.316 µM) 36.6% | viability, T/C (second compound 3.16 µM, first compound 1 µM) 15.3% | viability, T/C (second compound 10 µM, first compound 0.0316 µM) 73.6% | viability, T/C (second compound 10 µM, first compound 0.1 µM) 75.1% | viability, T/C (second compound 10 µM, first compound 0.316 µM) 29.3% | viability, T/C (second compound 10 µM, first compound 1 µM) 15.8% | viability, T/C (second compound 10 µM, first compound 3.16 µM) 10.8% | viability, T/C (second compound 10 µM, first compound 10 µM) 3.69%
200 nM: IC50 (second compound 0.1 µM)
199 nM: IC50 (second compound 1 µM)
active: viability, T/C (second compound 0.0316 µM, first compound 3.16 µM) 8.94% | viability, T/C (second compound 0.0316 µM, first compound 10 µM) 4.04% | viability, T/C (second compound 0.1 µM, first compound 3.16 µM) 10.6% | viability, T/C (second compound 0.1 µM, first compound 10 µM) 4.15% | viability, T/C (second compound 0.316 µM, first compound 3.16 µM) 9.43% | viability, T/C (second compound 0.316 µM, first compound 10 µM) 3.41% | viability, T/C (second compound 1 µM, first compound 3.16 µM) 9.22% | viability, T/C (second compound 1 µM, first compound 10 µM) 3.83% | viability, T/C (second compound 3.16 µM, first compound 3.16 µM) 8.76% | viability, T/C (second compound 3.16 µM, first compound 10 µM) 3.76%
198 nM: IC50 (second compound 3.16 µM)
197 nM: IC50 (second compound 0.0316 µM)
